Source: patent US20070219186A1, “Pyrazolo[1,5-A]pyrimidine derivatives and methods of use thereof” (priority 2006, published 2007)
Read-outs that look alike come from different tables or passages of the source.

Target: T1, human B-Raf (Homo sapiens, UniProt P15056)
T1 construct: Flag; GST; made in house; host or cells: Sf9 insect cells (B-Raf); E. coli (MEK1-GST)
Experiment: B-Raf Kinase to MEK1 ELISA
Format: biochemical
Details: for inhibition at 10 µM: read-out: % Inhib./10 uM
How it was run: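 Flag/GST-tagged human B-Raf (Sf9, ~20 ng/point) phosphorylates non-active GST-MEK1 (50 nM final) with ATP and MgCl2 in MOPS pH 7.2 buffer, 60 min at RT. Product is captured on anti-GST plates; MEK1 pSer217/221 is read by phospho-antibody plus europium conjugate (DELFIA).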

[1] = median, cpd concentrations from 10 μM to 30 nM in half log dilutions, read-out: Median IC50

T1 sequence (P15056 whole entry): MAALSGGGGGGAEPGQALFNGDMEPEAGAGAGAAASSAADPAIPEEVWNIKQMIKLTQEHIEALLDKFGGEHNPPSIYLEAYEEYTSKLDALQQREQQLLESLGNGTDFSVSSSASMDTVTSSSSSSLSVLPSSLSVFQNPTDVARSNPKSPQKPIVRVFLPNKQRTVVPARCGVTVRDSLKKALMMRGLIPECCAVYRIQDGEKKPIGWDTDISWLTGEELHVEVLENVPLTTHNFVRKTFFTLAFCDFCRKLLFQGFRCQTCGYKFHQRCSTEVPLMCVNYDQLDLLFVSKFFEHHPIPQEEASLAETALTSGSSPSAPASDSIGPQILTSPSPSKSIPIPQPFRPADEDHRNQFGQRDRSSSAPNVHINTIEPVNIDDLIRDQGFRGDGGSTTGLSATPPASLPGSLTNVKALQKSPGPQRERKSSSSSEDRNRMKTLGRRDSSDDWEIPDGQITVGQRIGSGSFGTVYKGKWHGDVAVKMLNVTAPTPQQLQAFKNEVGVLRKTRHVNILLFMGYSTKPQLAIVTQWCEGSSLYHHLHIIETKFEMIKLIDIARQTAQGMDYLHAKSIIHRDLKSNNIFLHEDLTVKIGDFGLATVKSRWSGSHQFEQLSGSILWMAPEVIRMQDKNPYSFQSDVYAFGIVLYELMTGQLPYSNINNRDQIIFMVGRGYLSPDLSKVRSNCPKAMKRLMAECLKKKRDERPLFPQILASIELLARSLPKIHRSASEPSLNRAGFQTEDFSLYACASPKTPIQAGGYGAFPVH

IC50 [1] [nM] | inhibition at 10 µM [%] | IC50 [nM] | Compound
> 10000 | 35 | – | CN(C)S(=O)(=O)c1ccc(-c2cnn3c(-c4cccc(NC(=O)c5cccc(C(F)(F)F)c5)c4)ccnc23)cc1 [Example 288, N-[3-(3-{4-[(dimethylamino)sulfonyl]phenyl}pyrazolo[1,5-a]pyrimidin-7-yl)phenyl]-3-(trifluoromethyl)benzamide]
26 | 86 | – | CN(C)CCc1ccc(-c2cnn3c(-c4cccc(NC(=O)c5cccc(C(F)(F)F)c5)c4)ccnc23)cc1 [Example 289, N-[3-(3-{4-[2-(dimethylamino)ethyl]phenyl}pyrazolo[1,5-a]pyrimidin-7-yl)phenyl]-3-(trifluoromethyl)benzamide]
> 10000 | 26 | – | O=C(Nc1cccc(-c2ccnc3c(-c4ccc(C(F)(F)F)cc4)cnn23)c1)c1cccc(C(F)(F)F)c1 [Example 292, 3-(trifluoromethyl)-N-(3-{3-[4-(trifluoromethyl)phenyl]pyrazolo[1,5-a]pyrimidin-7-yl}phenyl)benzamide]
> 10000 | 42 | – | N#Cc1cccc(-c2cnn3c(-c4cccc(NC(=O)c5cccc(C(F)(F)F)c5)c4)ccnc23)c1 [Example 294, N-{3-[3-(3-cyanophenyl)pyrazolo[1,5-a]pyrimidin-7-yl]phenyl}-3-(trifluoromethyl)benzamide]
> 10000 | 41 | – | N#Cc1ccc(-c2cnn3c(-c4cccc(NC(=O)c5cccc(C(F)(F)F)c5)c4)ccnc23)cc1 [Example 295, N-{3-[3-(4-cyanophenyl)pyrazolo[1,5-a]pyrimidin-7-yl]phenyl}-3-(trifluoromethyl)benzamide]
– | 53 | 1770 | COC(=O)c1cccc(-c2cnn3c(-c4cccc(NC(=O)c5cccc(C(F)(F)F)c5)c4)ccnc23)c1 [Example 296, methyl 3-[7-(3-{[3-(trifluoromethyl)benzoyl]amino}phenyl)pyrazolo[1,5-a]pyrimidin-3-yl]benzoate]
– | 75 | 2190 | COC(=O)c1ccc(-c2cnn3c(-c4cccc(NC(=O)c5cccc(C(F)(F)F)c5)c4)ccnc23)cc1 [Example 297, methyl 4-[7-(3-{[3-(trifluoromethyl)benzoyl]amino}phenyl)pyrazolo[1,5-a]pyrimidin-3-yl]benzoate]
– | 69 | 266 | CC(=O)c1ccccc1-c1cnn2c(-c3cccc(NC(=O)c4cccc(C(F)(F)F)c4)c3)ccnc12 [Example 298, N-{3-[3-(2-acetylphenyl)pyrazolo[1,5-a]pyrimidin-7-yl]phenyl}-3-(trifluoromethyl)benzamide]
– | 63 | 619 | CC(=O)c1cccc(-c2cnn3c(-c4cccc(NC(=O)c5cccc(C(F)(F)F)c5)c4)ccnc23)c1 [Example 299, N-{3-[3-(3-acetylphenyl)pyrazolo[1,5-a]pyrimidin-7-yl]phenyl}-3-(trifluoromethyl)benzamide]
– | 71 | 4490 | CC(=O)c1ccc(-c2cnn3c(-c4cccc(NC(=O)c5cccc(C(F)(F)F)c5)c4)ccnc23)cc1 [Example 300, N-{3-[3-(4-acetylphenyl)pyrazolo[1,5-a]pyrimidin-7-yl]phenyl}-3-(trifluoromethyl)benzamide]
195 | 80 | – | CC(O)c1cccc(-c2cnn3c(-c4cccc(NC(=O)c5cccc(C(F)(F)F)c5)c4)ccnc23)c1 (stereo not drawn) [Example 304, N-(3-{3-[3-(1-hydroxyethyl)phenyl]pyrazolo[1,5-a]pyrimidin-7-yl}phenyl)-3-(trifluoromethyl)benzamide]
– | 54 | 893 | Cc1ccccc1-c1cnn2c(-c3cccc(NC(=O)c4cccc(C(F)(F)F)c4)c3)ccnc12 [Example 305, N-{3-[3-(2-methylphenyl)pyrazolo[1,5-a]pyrimidin-7-yl]phenyl}-3-(trifluoromethyl)benzamide]
– | 80 | 10700 | O=C(Nc1cccc(-c2ccnc3c(-c4ccc(F)nc4)cnn23)c1)c1cccc(C(F)(F)F)c1 [Example 311, N-{3-[3-(6-fluoropyridin-3-yl)pyrazolo[1,5-a]pyrimidin-7-yl]phenyl}-3-(trifluoromethyl)benzamide]

Further lines, the compound ahead of its results:

Compound | IC50 [1] [nM] | inhibition at 10 µM [%] | IC50 [nM]
O=C(Nc1cccc(-c2ccnc3cc(-c4ccc(Br)cc4)nn23)c1)c1cccc(C(F)(F)F)c1 [Example 287, N-{3-[2-(4-bromophenyl)pyrazolo[1,5-a]pyrimidin-7-yl]phenyl}-3-(trifluoromethyl)benzamide] | > 10000 | 12 | –
O=C(Nc1cccc(-c2ccnc3c(-c4ccccc4C(F)(F)F)cnn23)c1)c1cccc(C(F)(F)F)c1 [Example 290, 3-(trifluoromethyl)-N-(3-{3-[2-(trifluoromethyl)phenyl]pyrazolo[1,5-a]pyrimidin-7-yl}phenyl)benzamide] | – | 67 | 367
O=C(Nc1cccc(-c2ccnc3c(-c4cccc(C(F)(F)F)c4)cnn23)c1)c1cccc(C(F)(F)F)c1 [Example 291, 3-(trifluoromethyl)-N-(3-{3-[3-(trifluoromethyl)phenyl]pyrazolo[1,5-a]pyrimidin-7-yl}phenyl)benzamide] | > 10000 | 33 | –
N#Cc1ccccc1-c1cnn2c(-c3cccc(NC(=O)c4cccc(C(F)(F)F)c4)c3)ccnc12 [Example 293, N-{3-[3-(2-cyanophenyl)pyrazolo[1,5-a]pyrimidin-7-yl]phenyl}-3-(trifluoromethyl)benzamide] | – | 55 | 7470
O=C(Nc1cccc(-c2ccnc3c(-c4ccnc(Cl)c4)cnn23)c1)c1cccc(C(F)(F)F)c1 [Example 301, N-{3-[3-(2-chloropyridin-4-yl)pyrazolo[1,5-a]pyrimidin-7-yl]phenyl}-3-(trifluoromethyl)benzamide] | – | 75 | 1730
Cc1cc(-c2cccc(NC(=O)c3cccc(C(F)(F)F)c3)c2)n2nc(-c3ccncc3)cc2n1 [Example 302, N-[3-(5-methyl-2-pyridin-4-ylpyrazolo[1,5-a]pyrimidin-7-yl)phenyl]-3-(trifluoromethyl)benzamide] | 800 | 72 | –
CC(O)c1ccccc1-c1cnn2c(-c3cccc(NC(=O)c4cccc(C(F)(F)F)c4)c3)ccnc12 (stereo not drawn) [Example 303, N-(3-{3-[2-(1-hydroxyethyl)phenyl]pyrazolo[1,5-a]pyrimidin-7-yl}phenyl)-3-(trifluoromethyl)benzamide] | 288 | 80 | –
O=C(Nc1cccc(-c2ccnc3c(-c4cnn(CCN5CCCC5)c4)cnn23)c1)c1cccc(C(F)(F)F)c1 [Example 307, N-(3-{3-[1-(2-pyrrolidin-1-ylethyl)-1H-pyrazol-4-yl]pyrazolo[1,5-a]pyrimidin-7-yl}phenyl)-3-(trifluoromethyl)benzamide] | – | – | 393
Cn1cc(-c2cnn3c(-c4cccc(NC(=O)c5cccc(C(F)(F)F)c5)c4)ccnc23)cn1 [Example 308, N-{3-[3-(1-methyl-1H-pyrazol-4-yl)pyrazolo[1,5-a]pyrimidin-7-yl]phenyl}-3-(trifluoromethyl)benzamide] | 281 | 86 | –
O=Cc1cc(C=O)cc(-c2cnn3c(-c4cccc(NC(=O)c5cccc(C(F)(F)F)c5)c4)ccnc23)c1 [Example 310, N-{3-[3-(3,5-diformylphenyl)pyrazolo[1,5-a]pyrimidin-7-yl]phenyl}-3-(trifluoromethyl)benzamide] | > 10000 | 37 | –
